Where two headings read alike, the source gives them in different places.

Here are results for 26 molecules from patent US8586588B2, “Aryl pyridazinone derivatives and their use as H3 receptor ligands” (Cephalon, Inc., priority 2006, dated 2013).

One assay addresses T1, human H3 receptor (Homo sapiens, UniProt Q9Y5N1).
T1 construct: expressed in transfected cells
The experiment in a line: Human H3 radioligand binding ([3H]-N-alpha-methylhistamine, CHO cell membranes, SPA). The settings on record: binding constant as letter class. Summed up:
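Scintillation proximity format: bead-proximal [3H]-N-alpha-methylhistamine (approximately 1 nM final) bound to human H3 receptor in CHO membranes was counted after 4 h at room temperature, light-protected. Buffer was pH 7.4 Tris/MgCl2/BSA; test compounds spanned 0.01 nM-30 μM; 10 μM clobenpropit set non-specific binding.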

The target of assay [1] is T2, rat histamine H3 receptor (Rattus norvegicus, UniProt Q9QYN8).
T2 construct: encoding the entire 445-amino-acid rat histamine H3 receptor; expressed in transfected cells
T2 sequence (Q9QYN8 whole entry): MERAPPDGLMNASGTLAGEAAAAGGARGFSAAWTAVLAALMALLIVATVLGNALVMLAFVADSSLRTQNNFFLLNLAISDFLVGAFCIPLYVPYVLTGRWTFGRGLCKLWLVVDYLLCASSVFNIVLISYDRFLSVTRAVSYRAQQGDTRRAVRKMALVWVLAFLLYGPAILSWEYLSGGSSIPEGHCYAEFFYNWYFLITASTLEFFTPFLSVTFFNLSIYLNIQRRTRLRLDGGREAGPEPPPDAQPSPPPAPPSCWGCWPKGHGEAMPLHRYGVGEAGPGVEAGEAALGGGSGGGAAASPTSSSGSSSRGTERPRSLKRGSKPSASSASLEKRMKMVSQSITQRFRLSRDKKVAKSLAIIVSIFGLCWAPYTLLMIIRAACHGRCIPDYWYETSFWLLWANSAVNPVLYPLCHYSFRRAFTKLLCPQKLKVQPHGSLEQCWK
The experiment in a line: Rat H3 radioligand binding ([3H]-N-alpha-methylhistamine, CHO-A3 cell membranes, SPA). The settings on record: binding constant as letter class. Summed up: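 Scintillation proximity displacement of about 1 nM [3H]-N-alpha-methylhistamine, test compound 0.01 nM-30 μM, 4 h, room temperature, in the dark. Receptor source: rat H3 stably transfected into CHO-A3 cells, 10 μg membrane protein, Tris-HCl pH 7.4/MgCl2/BSA buffer. Nonspecific binding defined by 10 μM clobenpropit.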

T1 sequence (Q9Y5N1 whole entry): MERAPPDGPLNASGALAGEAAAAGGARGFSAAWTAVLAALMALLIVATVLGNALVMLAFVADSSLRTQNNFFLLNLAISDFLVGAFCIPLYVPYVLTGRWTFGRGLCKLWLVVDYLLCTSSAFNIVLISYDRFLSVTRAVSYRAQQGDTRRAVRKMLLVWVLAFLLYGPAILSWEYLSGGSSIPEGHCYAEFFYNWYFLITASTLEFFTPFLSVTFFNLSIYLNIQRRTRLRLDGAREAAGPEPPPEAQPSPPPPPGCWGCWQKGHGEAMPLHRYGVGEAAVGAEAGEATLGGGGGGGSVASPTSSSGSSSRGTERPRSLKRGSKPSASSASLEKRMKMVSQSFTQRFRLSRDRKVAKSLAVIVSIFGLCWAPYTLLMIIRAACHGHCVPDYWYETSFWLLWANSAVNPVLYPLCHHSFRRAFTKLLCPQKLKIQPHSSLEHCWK

For `C[C@@H]1CCCN1CCCOc1ccc2c(c1)CCc1cc(=O)n(-c3ccccc3)nc1-2` [Example 76, 8-[3-((R)-2-Methyl-pyrrolidin-1-yl)-propoxy]-2-phenyl-5,6-dihydro-2H-benzo[h]cinnolin-3-one], the Ki – broadly, the equilibrium dissociation constant of an inhibitor or competing ligand from its target – fell in the range of 0.1 to 100 nM at human H3 receptor (Table A) and 0.1 to 100 nM in assay [1] (Table A, read-out: Rat H3 Ki).
As for `CCN(CC)CCCOc1ccc(-c2nn(C(C)C)c(=O)c3ccsc23)cc1` [Example 28, 7-[4-(3-Diethylamino-propoxy)-phenyl]-5-isopropyl-5H-thieno[2,3-d]pyridazin-4-one], the Ki at human H3 receptor (Table A) is 0.1 to 100 nM; in assay [1] (Table A, read-out: Rat H3 Ki) it was 101 to 500 nM.
As to `Cn1nc(-c2ccc(OCCCN3CCC[C@H]3CO)cc2)c2c(c1=O)CCCC2` [Example 124, 4-{4-[3-((S)-2-Hydroxymethyl-pyrrolidin-1-yl)-propoxy]-phenyl}-2-methyl-5,6,7,8-tetrahydro-2H-phthalazin-1-one], the Ki on human H3 receptor (Table B) fell in the range of 0.1 to 100 nM; in assay [1] (Table B, read-out: rat H3 Ki) it was 0.1 to 100 nM.
As for `CC(C)N1CCC(Oc2ccc(-c3ccc(=O)n(C)n3)cc2)CC1` [Example 72], the Ki at human H3 receptor (Table A) lay within 0.1 to 100 nM; in assay [1] (Table A, read-out: Rat H3 Ki), 0.1 to 100 nM.
With `C[C@@H]1CCCN1CCCOc1ccc(-c2nn(C)c(=O)c3c2CCCC3)cc1` [Example 60, 2-Methyl-4-{4-[3-((R)-2-methyl-pyrrolidin-1-yl)-propoxy]-phenyl}-5,6,7,8-tetrahydro-2H-phthalazin-1-one], the Ki fell in the range of 0.1 to 100 nM on human H3 receptor (Table A) and 0.1 to 100 nM in assay [1] (Table A, read-out: Rat H3 Ki).
Consider `CC(C)n1ncc(-c2ccc(OCCCN3CCC[C@H]3C)cc2)cc1=O` [Example 128, 2-Isopropyl-5-{4-[3-((R)-2-methyl-pyrrolidin-1-yl)-propoxy]-phenyl}-2H-pyridazin-3-one], for which the Ki is 0.1 to 100 nM at human H3 receptor (Table B) and 0.1 to 100 nM in assay [1] (Table B, read-out: rat H3 Ki).
In the case of `Cn1nc(-c2ccc(OCCCN3CCCCC3)cc2)cc(Cc2ccccc2)c1=O` [Example 46, 4-Benzyl-2-methyl-6-[4-(3-piperidin-1-yl-propoxy)-phenyl]-2H-pyridazin-3-one], the Ki at human H3 receptor (Table A) lay within 0.1 to 100 nM; in assay [1] (Table A, read-out: Rat H3 Ki) it was 101 to 500 nM.
Regarding `C[C@@H]1CCCN1CCCOc1ccc(-c2ccc(=O)[nH]n2)cc1` [Example 11, 6-{4-[3-((R)-2-Methyl-pyrrolidin-1-yl)-propoxy]-phenyl}-2H-pyridazin-3-one], the Ki on human H3 receptor (Table A) lay in the range of 0.1 to 100 nM; in assay [1] (Table A, read-out: Rat H3 Ki), 0.1 to 100 nM.
As for `Cn1ncc(-c2ccc(OCCCN3CCCCC3)cc2)cc1=O` [Example 92, 2-Methyl-5-[4-(3-piperidin-1-yl-propoxy)-phenyl]-2H-pyridazin-3-one], the Ki on human H3 receptor (Table B) was in the range of 0.1 to 100 nM; in assay [1] (Table B, read-out: rat H3 Ki), 0.1 to 100 nM.
`O=C1NN=C(c2ccc(OC3CCN(C4CCC4)CC3)cc2)C2CC12` (single isomer, unassigned) [Example 248, 5-[4-(1-Cyclobutyl-piperidin-4-yloxy)-phenyl]-3,4-diaza-bicyclo[4.1.0]hept-4-en-2-one]: the Ki lay within 0.1 to 100 nM at human H3 receptor (Table B) and 0.1 to 100 nM in assay [1] (Table B, read-out: rat H3 Ki).
For the molecule `Cn1ncc(-c2ccc(OCCCN3CCCCCC3)cc2)cc1=O` [Example 93, 5-[4-(3-Azepan-1-yl-propoxy)-phenyl]-2-methyl-2H-pyridazin-3-one], the Ki on human H3 receptor (Table B) was 0.1 to 100 nM; in assay [1] (Table B, read-out: rat H3 Ki), 0.1 to 100 nM.
As to `O=c1c2ccccc2c(-c2ccc(OCCCN3CCCCC3)cc2)nn1Cc1ccc(Cl)cc1` [Example 55, 2-(4-Chloro-benzyl)-4-[4-(3-piperidin-1-yl-propoxy)-phenyl]-2H-phthalazin-1-one], the Ki on human H3 receptor (Table A) is 0.1 to 100 nM; in assay [1] (Table A, read-out: Rat H3 Ki), 0.1 to 100 nM.
As to `Cc1cc(-c2ccc(OCCCN3CCC[C@H]3C)cc2)nn(Cc2ccccc2)c1=O` [Example 43, 2-Benzyl-4-methyl-6-{4-[3-((R)-2-methyl-pyrrolidin-1-yl)-propoxy]-phenyl}-2H-pyridazin-3-one], the Ki at human H3 receptor (Table A) fell in the range of 0.1 to 100 nM; in assay [1] (Table A, read-out: Rat H3 Ki), 0.1 to 100 nM.
`O=c1ccc(-c2ccc(OC3CCN(C4CCC4)CC3)cc2)nn1-c1ccccn1` [Example 157]: the Ki fell in the range of 0.1 to 100 nM at human H3 receptor (Table B) and 0.1 to 100 nM in assay [1] (Table B, read-out: rat H3 Ki).
Consider `CC(C)n1nc(-c2ccc(OCCCN3CCCCC3)cc2)c2sccc2c1=O` [Example 24, 5-Isopropyl-7-[4-(3-piperidin-1-yl-propoxy)-phenyl]-5H-thieno[2,3-d]pyridazin-4-one], for which the Ki lay within 0.1 to 100 nM on human H3 receptor (Table A) and 0.1 to 100 nM in assay [1] (Table A, read-out: Rat H3 Ki).
Regarding `C[C@H](COc1ccc(-c2ccc(=O)n(C)n2)cc1)CN1CCC[C@H]1C` [Example 13, 2-Methyl-6-{4-[(S)-2-methyl-3-((R)-2-methyl-pyrrolidin-1-yl)-propoxy]-phenyl}-2H-pyridazin-3-one], the Ki at human H3 receptor (Table A) lay within 0.1 to 100 nM; in assay [1] (Table A, read-out: Rat H3 Ki) it was 0.1 to 100 nM.
`CC(C)n1nc(-c2ccc(OCCCN3CCC[C@H]3C)cc2)c2sccc2c1=O` [Example 22, 5-Isopropyl-7-{4-[3-((R)-2-methyl-pyrrolidin-1-yl)-propoxy]-phenyl}-5H-thieno[2,3-d]pyridazin-4-one]: the Ki was 0.1 to 100 nM at human H3 receptor (Table A) and 0.1 to 100 nM in assay [1] (Table A, read-out: Rat H3 Ki).
With `C[C@@H]1CCCN1CCCOc1ccc(C2=NN(Cc3ccc(Cl)cc3Cl)C(=O)CC2)cc1` [Example 8, 2-(2,4-Dichloro-benzyl)-6-{4-[3-((R)-2-methyl-pyrrolidin-1-yl)-propoxy]-phenyl}-4,5-dihydro-2H-pyridazin-3-one], the Ki on human H3 receptor (Table A) is 0.1 to 100 nM; in assay [1] (Table A, read-out: Rat H3 Ki), 0.1 to 100 nM.
`Cc1n[nH]c(=O)cc1-c1ccc(OC2CCN(C3CCC3)CC2)cc1` [Example 103, 5-[4-(1-Cyclobutyl-piperidin-4-yloxy)-phenyl]-6-methyl-2H-pyridazin-3-one]: the Ki lay within 0.1 to 100 nM on human H3 receptor (Table B) and 0.1 to 100 nM in assay [1] (Table B, read-out: rat H3 Ki).
For the molecule `Cn1nc(-c2ccc(OC3CCN(C4CCC4)CC3)nc2)ccc1=O` [Example 144, 6-[6-(1-Cyclobutyl-piperidin-4-yloxy)-pyridin-3-yl]-2-methyl-2H-pyridazin-3-one], the Ki was 0.1 to 100 nM at human H3 receptor (Table B) and 0.1 to 100 nM in assay [1] (Table B, read-out: rat H3 Ki).
As for `Cn1nc(-c2ccc(OCCCN3CCCCC3)cc2)ccc1=O` [Example 2, 2-Methyl-6-[4-(3-piperidin-1-yl-propoxy)-phenyl]-2H-pyridazin-3-one], the Ki fell in the range of 0.1 to 100 nM on human H3 receptor (Table A) and 101 to 500 nM in assay [1] (Table A, read-out: Rat H3 Ki).
For `Cn1nc(-c2ccc(OCC3CCN(C4CCC4)CC3)cc2)c2ccccc2c1=O` [Example 64, 4-[4-(1-Cyclobutyl-piperidin-4-ylmethoxy)-phenyl]-2-methyl-2H-phthalazin-1-one], the Ki on human H3 receptor (Table A) was 0.1 to 100 nM; in assay [1] (Table A, read-out: Rat H3 Ki), 101 to 500 nM.
In the case of `C[C@@H]1CCCN1CCCOc1ccc(C2=NN(c3ccccn3)C(=O)CC2)cc1` [Example 183, 6-{4-[3-((R)-2-Methyl-pyrrolidin-1-yl)-propoxy]-phenyl}-2-pyridin-2-yl-4,5-dihydro-2H-pyridazin-3-one], the Ki at human H3 receptor (Table B) lay in the range of 0.1 to 100 nM; in assay [1] (Table B, read-out: rat H3 Ki) it was 0.1 to 100 nM.
Take `Cn1nc(-c2ccc(OCCN3CCCCC3)cc2)c2ccccc2c1=O` [Example 51, 2-Methyl-4-[4-(2-piperidin-1-yl-ethoxy)-phenyl]-2H-phthalazin-1-one]: the Ki at human H3 receptor (Table A) was 0.1 to 100 nM; in assay [1] (Table A, read-out: Rat H3 Ki), above 1000 nM.
In the case of `C[C@H]1CCCN1CCCOc1ccc(-c2ccc(=O)[nH]n2)cc1` [Example 239, 6-{4-[3-((S)-2-Methyl-pyrrolidin-1-yl)-propoxy]-phenyl}-2H-pyridazin-3-one], the Ki at human H3 receptor (Table B) is 0.1 to 100 nM; in assay [1] (Table B, read-out: rat H3 Ki) it was 0.1 to 100 nM.
As to `C[C@@H]1CCCN1CCCOc1ccc(-c2ccc(=O)n(-c3ncccn3)n2)cc1` [Example 138, 6-{4-[3-((R)-2-Methyl-pyrrolidin-1-yl)-propoxy]-phenyl}-2-pyrimidin-2-yl-2H-pyridazin-3-one], the Ki at human H3 receptor (Table B) lay within 0.1 to 100 nM; in assay [1] (Table B, read-out: rat H3 Ki) it was 0.1 to 100 nM.
